Source: PubChem BioAssay (NCI)
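Growth conditions: 96-well plates. Treatment: test compound, 48 hours, 5 concentrations. Analysis: linear interpolation between bracketing concentrations; unreached endpoints set to highest concentration. The concentration for full growth arrest is given as TGI.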

Legend:
Experiment in all cases: NCI-60 cell line screen, 48 h
NCI-H226 lung = tested on: NCI-H226 lung
SNB-75 CNS = tested on: SNB-75 CNS
MALME-3M melanoma = tested on: MALME-3M melanoma
SN12C renal = tested on: SN12C renal
OVCAR-4 ovarian = tested on: OVCAR-4 ovarian
HCT-116 colon = tested on: HCT-116 colon
OVCAR-3 ovarian = tested on: OVCAR-3 ovarian
IGROV1 ovarian = tested on: IGROV1 ovarian
A549 NSCLC = tested on: A549 NSCLC
HOP-92 NSCLC = tested on: HOP-92 NSCLC
ACHN renal = tested on: ACHN renal
RXF 393 renal = tested on: RXF 393 renal
UACC-62 melanoma = tested on: UACC-62 melanoma
TK-10 renal = tested on: TK-10 renal
SF-539 CNS = tested on: SF-539 CNS
RPMI-8226 leukemia = tested on: RPMI-8226 leukemia
EKVX NSCLC = tested on: EKVX NSCLC
SF-295 CNS = tested on: SF-295 CNS
KM20L2 colon = tested on: KM20L2 colon
MOLT-4 leukemia = tested on: MOLT-4 leukemia
UACC-257 melanoma = tested on: UACC-257 melanoma
SF-268 CNS = tested on: SF-268 CNS
HOP-62 NSCLC = tested on: HOP-62 NSCLC
OVCAR-5 ovarian = tested on: OVCAR-5 ovarian
UO-31 renal = tested on: UO-31 renal
OVCAR-8 ovarian = tested on: OVCAR-8 ovarian
NCI-H460 lung = tested on: NCI-H460 lung
COLO 205 colon = tested on: COLO 205 colon
LOX IMVI melanoma = tested on: LOX IMVI melanoma
SW-620 colon = tested on: SW-620 colon
CCRF-CEM leukemia = tested on: CCRF-CEM leukemia
SK-MEL-2 melanoma = tested on: SK-MEL-2 melanoma
SK-OV-3 ovarian = tested on: SK-OV-3 ovarian
SK-MEL-5 melanoma = tested on: SK-MEL-5 melanoma
HCT-15 colon = tested on: HCT-15 colon
HL-60(TB) leukemia = tested on: HL-60(TB) leukemia
CAKI-1 renal = tested on: CAKI-1 renal
DLD-1 colon = tested on: DLD-1 colon
M14 melanoma = tested on: M14 melanoma
DMS 114 small cell lung = tested on: DMS 114 small cell lung
SNB-78 CNS = tested on: SNB-78 CNS
M19-MEL melanoma = tested on: M19-MEL melanoma
LXFL 529 NSCLC = tested on: LXFL 529 NSCLC
K-562 leukemia = tested on: K-562 leukemia
786-0 renal = tested on: 786-0 renal
A498 renal = tested on: A498 renal
HOP-18 NSCLC = tested on: HOP-18 NSCLC
SNB-19 CNS = tested on: SNB-19 CNS
SK-MEL-28 melanoma = tested on: SK-MEL-28 melanoma
DMS 273 small cell lung = tested on: DMS 273 small cell lung
NCI-H23 lung = tested on: NCI-H23 lung
HCC-2998 colon = tested on: HCC-2998 colon
SR leukemia = tested on: SR leukemia
KM12 colon = tested on: KM12 colon
HT29 colon = tested on: HT29 colon
XF 498 CNS = tested on: XF 498 CNS
NCI-H522 lung = tested on: NCI-H522 lung
U251 CNS = tested on: U251 CNS

`O=C(Nc1cccc(C(F)(F)F)c1)C(=O)C1NC(=S)NC1=O` (stereo unspecified) showed a TGI (NCI-H226 lung) of over 100 µM, a TGI (SNB-75 CNS) of over 100 µM and a TGI (MALME-3M melanoma) of over 100 µM. For the same compound, the TGI (SN12C renal) was over 100 µM, the TGI (OVCAR-4 ovarian) was over 100 µM and the TGI (HCT-116 colon) was over 100 µM. It also gave a TGI (OVCAR-3 ovarian) of over 100 µM, a TGI (IGROV1 ovarian) of over 100 µM and a TGI (A549 NSCLC) of over 100 µM. The TGI (HOP-92 NSCLC) was over 100 µM, the TGI (ACHN renal) was over 100 µM and the TGI (RXF 393 renal) was over 100 µM. It also gave a TGI (UACC-62 melanoma) of over 100 µM, a TGI (TK-10 renal) of over 100 µM and a TGI (SF-539 CNS) of over 100 µM. For the same compound, the TGI (RPMI-8226 leukemia) was over 100 µM, the TGI (EKVX NSCLC) was over 100 µM and the TGI (SF-295 CNS) was over 100 µM. The TGI (KM20L2 colon) was over 100 µM, the TGI (MOLT-4 leukemia) was over 100 µM and the TGI (UACC-257 melanoma) was over 100 µM. It also gave a TGI (SF-268 CNS) of over 100 µM, a TGI (HOP-62 NSCLC) of over 100 µM and a TGI (OVCAR-5 ovarian) of over 100 µM. It also gave a TGI (UO-31 renal) of over 100 µM, a TGI (OVCAR-8 ovarian) of over 100 µM and a TGI (NCI-H460 lung) of over 100 µM. For the same compound, the TGI (COLO 205 colon) was over 100 µM, the TGI (LOX IMVI melanoma) was over 100 µM and the TGI (SW-620 colon) was 36.5 µM. For the same compound, the TGI (CCRF-CEM leukemia) was over 100 µM, the TGI (SK-MEL-2 melanoma) was over 100 µM and the TGI (SK-OV-3 ovarian) was over 100 µM. The TGI (SK-MEL-5 melanoma) was over 100 µM, the TGI (HCT-15 colon) was over 100 µM and the TGI (HL-60(TB) leukemia) was over 100 µM. The TGI (CAKI-1 renal) was over 100 µM, the TGI (DLD-1 colon) was over 100 µM and the TGI (M14 melanoma) was over 100 µM. For the same compound, the TGI (DMS 114 small cell lung) was over 100 µM, the TGI (SNB-78 CNS) was over 100 µM and the TGI (M19-MEL melanoma) was over 100 µM. The TGI (LXFL 529 NSCLC) was over 100 µM, the TGI (K-562 leukemia) was over 100 µM and the TGI (786-0 renal) was over 100 µM. It also gave a TGI (A498 renal) of over 100 µM, a TGI (HOP-18 NSCLC) of over 100 µM and a TGI (SNB-19 CNS) of over 100 µM. The TGI (SK-MEL-28 melanoma) was over 100 µM, the TGI (DMS 273 small cell lung) was over 100 µM and the TGI (NCI-H23 lung) was over 100 µM. It also gave a TGI (HCC-2998 colon) of over 100 µM, a TGI (SR leukemia) of over 100 µM and a TGI (KM12 colon) of over 100 µM. The TGI (HT29 colon) was over 100 µM.
For `O=c1c2ccccc2nc(/C=C(\O)c2ccncc2)n1-c1ccc(Cl)cc1`, the TGI (NCI-H226 lung) was over 100 µM, the TGI (SNB-75 CNS) was 61.7 µM and the TGI (MALME-3M melanoma) was over 100 µM. The TGI (SN12C renal) was over 100 µM, the TGI (OVCAR-4 ovarian) was over 100 µM and the TGI (HCT-116 colon) was over 100 µM. It also gave a TGI (OVCAR-3 ovarian) of over 100 µM, a TGI (A549 NSCLC) of over 100 µM and a TGI (HOP-92 NSCLC) of over 100 µM. The TGI (ACHN renal) was over 100 µM, the TGI (UACC-62 melanoma) was over 100 µM and the TGI (TK-10 renal) was over 100 µM. For the same compound, the TGI (RPMI-8226 leukemia) was over 100 µM, the TGI (EKVX NSCLC) was over 100 µM and the TGI (SF-295 CNS) was over 100 µM. The TGI (KM20L2 colon) was over 100 µM, the TGI (MOLT-4 leukemia) was over 100 µM and the TGI (UACC-257 melanoma) was over 100 µM. For the same compound, the TGI (SF-268 CNS) was over 100 µM, the TGI (HOP-62 NSCLC) was over 100 µM and the TGI (OVCAR-5 ovarian) was over 100 µM. It also gave a TGI (UO-31 renal) of over 100 µM, a TGI (OVCAR-8 ovarian) of over 100 µM and a TGI (NCI-H460 lung) of over 100 µM. It also gave a TGI (COLO 205 colon) of over 100 µM, a TGI (XF 498 CNS) of 66.4 µM and a TGI (NCI-H522 lung) of over 100 µM. For the same compound, the TGI (SW-620 colon) was over 100 µM, the TGI (CCRF-CEM leukemia) was over 100 µM and the TGI (SK-MEL-2 melanoma) was over 100 µM. It also gave a TGI (SK-OV-3 ovarian) of over 100 µM, a TGI (U251 CNS) of over 100 µM and a TGI (SK-MEL-5 melanoma) of over 100 µM. For the same compound, the TGI (HCT-15 colon) was over 100 µM, the TGI (HL-60(TB) leukemia) was over 100 µM and the TGI (CAKI-1 renal) was over 100 µM. The TGI (DLD-1 colon) was over 100 µM, the TGI (M14 melanoma) was over 100 µM and the TGI (DMS 114 small cell lung) was over 100 µM. It also gave a TGI (SNB-78 CNS) of over 100 µM, a TGI (M19-MEL melanoma) of over 100 µM and a TGI (LXFL 529 NSCLC) of over 100 µM. The TGI (K-562 leukemia) was over 100 µM, the TGI (786-0 renal) was over 100 µM and the TGI (A498 renal) was over 100 µM. The TGI (SNB-19 CNS) was over 100 µM, the TGI (SK-MEL-28 melanoma) was over 100 µM and the TGI (NCI-H23 lung) was over 100 µM. The TGI (SR leukemia) was over 100 µM, the TGI (KM12 colon) was over 100 µM and the TGI (HT29 colon) was over 100 µM.
